Test results published in US20080161232A1, “C5a Receptor Antagonist” (JERINI AG, priority 2005, published 2008).
Starred links: 1 amine or outer side, 2 acyl side, 3 side chain; linkers in the order of their positions; H or OH if unused. Positions of bridges follow the written chain, without caps; N, C: chain ends. Non-standard residues stand in square brackets, D forms with d. Residues, ends and D or L forms follow the SMILES beside them. *: point of attachment. Phe(3-Cl) = N[C@@H](Cc1cccc(Cl)c1)C(=O)O; Dip = N[C@H](C(=O)O)C(c1ccccc1)c1ccccc1; Phe(3-F) = N[C@@H](Cc1cccc(F)c1)C(=O)O; Phe(4-F) = N[C@@H](Cc1ccc(F)cc1)C(=O)O; 2Nal = N[C@@H](Cc1ccc2ccccc2c1)C(=O)O; Phe(2-F) = N[C@@H](Cc1ccccc1F)C(=O)O; Bta = N[C@@H](Cc1csc2ccccc12)C(=O)O; Hydrocinnamoyl = O=C(CCc1ccccc1)*; d(hLeu) = CC(C)CC[C@@H](N)C(=O)O; 2Thi = N[C@@H](Cc1cccs1)C(=O)O; Cha = N[C@@H](CC1CCCCC1)C(=O)O; dCha = N[C@H](CC1CCCCC1)C(=O)O; Pip = O=C(O)[C@@H]1CCCCN1; Nle = CCCC[C@H](N)C(=O)O; Orn = NCCC[C@H](N)C(=O)O; CO = O=C([*:1])[*:2]; NHPh = c1ccc(N*)cc1

How the values were obtained:
human C5aR(CD88) [1] = target: T1, human C5aR(CD88) (Homo sapiens, UniProt P21730); assay: Determination of the IC50 value in an enzyme release assay (functional assay, antagonistic activity); assay type: cell-based; settings: for IC50: antagonistic activity, IC50 group in enzyme release assay, RBL cells expressing human C5aR(CD88), read-out: activity (group)
T1 construct: expressed in transfected cells; host or cells: rat basophilic leukemia cells (RBL)
T1 sequence (P21730 1-350): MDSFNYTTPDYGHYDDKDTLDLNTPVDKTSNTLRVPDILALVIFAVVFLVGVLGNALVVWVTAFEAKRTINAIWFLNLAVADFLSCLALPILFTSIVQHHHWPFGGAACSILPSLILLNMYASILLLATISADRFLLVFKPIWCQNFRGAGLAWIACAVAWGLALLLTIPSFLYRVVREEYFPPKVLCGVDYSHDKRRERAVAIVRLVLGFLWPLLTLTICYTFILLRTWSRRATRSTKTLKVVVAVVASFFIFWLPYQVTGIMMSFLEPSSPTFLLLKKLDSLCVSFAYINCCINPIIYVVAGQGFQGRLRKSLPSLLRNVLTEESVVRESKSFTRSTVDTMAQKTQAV

human C5aR(CD88) [2] = target: T1, human C5aR(CD88); assay: Determination of EC50-values in an enzyme release assay (agonistic activity); assay type: cell-based; settings: for EC50: agonistic activity, no C5a added, read-out: EC50; for agonistic activity (in words): cellular assay, up to a concentration of at least 1430 nM
Description: The assay procedure was described by Kohl (Kohl 1997 The Anaphylatoxins. In: Dodds, A. W., Sim, R. B. (Eds.), Complement: A Practical Approach. Oxford, pp. 135-163). Basophilic leukemia cells from rats (RBL), which express the human C5aR(CD88), were cultivated in DMEM with 10% fetal bovine serum, 100 U/ml penicillin, 100 μg/ml streptomycin and 2 mM glutamine (all components of the media from Biochrome, Berlin) to confluence at 37° C. and 10% CO2. The following specifications refer to single cell culture flask having a surface of 75 cm^2. Medium was decanted from cells. Cells were washed with 10 ml PBS (Dulbecco's PBS, Biochrome) and subsequently overlayed with 3 ml Cell Dissociation Solution (CDS, Sigma). Cells were incubated for 1 min at room temperature. Subsequently, CDS was removed and the cells were further incubated for 10-15 min at 37° C. for dissociation. In the assay, 20 μl of the solution containing the compound to be tested were used. This solution should not contain more than 2.8% DMSO. For the dilution process, the compounds were diluted in ⅓ or ½ steps. To 20 μl compound solution 75 μl of the RBL-cells were added, which were treated as follows: after dissociation cells were detached and warmed at 37° C. in 10 ml HAG-CM (20 mM HEPES; 125 mM NaCl, 5 mM KCl, 1 mM CaCl2, 1 mM MgCl2, 0,5 mM Glucose, 0,25% BSA. HEPES-preparation: 2.3 g/l HEPES-salt +2.66 g/l HEPES acid). Cells were counted and centrifuged (200×g, 10 min). The cell pellet was resuspended in preheated HAG-CM (i.e. Hepes-buffer NaCl-glucose-solution with calcium and magnesium), and the cell density was adjusted to 2×10^6 cells/ml. The cells were incubated at 37° C. for 5 min. Per ml cell suspension 27 μl of a cytochalasin B-solution were added (100 μg/ml in DMSO, Sigma). The cells were incubated for further 3 min at 37° C. 75 μl of the cell suspension were added to 20 μl compound solution leading to a volume of 95 μl per well. After incubation of the cells for 10 min at 37° C. 10 μl hrC5a (10.5 nM in HAG-CM, Sigma) per well were added. The cells were incubated for additional 5 min at 37° C. The mtp was then transferred to ice and centrifuged for 3 min at 4° C. with 1200×g. 75 μl of the supernatant were added to 100 μl substrate-solution (2.7 mg/ml p-nitrophenyl-N-acetyl-β-D-glucosaminide (Sigma) in 42.5 mM Na-acetate pH 4.5). The mtp was incubated for further 60 min at 37° C. 75 μl 0.4 M glycine pH 10.4 were added per well. The mtp was transferred into a reader and the absorption at 405 nm was measured. IC50-values were obtained following the equation; y=((A-D)/(1+(x/C)^B))+D.
Determination of EC50-Values in an Enzyme Release Assay
The determination of EC50-values was performed according to the procedure given in example II, with the exception that 30 μl of the test compound need to be mixed with 75 μl of the cell suspension mentioned in example 11. Neither preincubation nor addition of C5a for stimulation of enzyme release is needed.

CCCC[C@@H]1NC(=O)[C@H](Cc2c[nH]c3ccccc23)NC(=O)[C@@H](CC2CCCCC2)NC(=O)[C@@H]2CCCN2C(=O)[C@@H](NC(=O)CCc2ccccc2)CCCNC1=O [Compound 41, Ph-CH2—CH2—CO-[Orn-Pro-cha-Trp-Nle]] (Hydrocinnamoyl-[Orn]P[dCha]W[Nle]; lactam 1-C)
IC50 (human C5aR(CD88) [1]): 10 to 20 nM | inhibitory activity (in words) (human C5aR(CD88) [1]; functional assay of example 11, noteworthy = IC50 less than 200 nM): noteworthy inhibitory activity | EC50 (human C5aR(CD88) [2]): > 1430 nM | agonistic activity (in words) (human C5aR(CD88) [2]): pure antagonists

CC(=O)N[C@@H](Cc1ccccc1)C(=O)N[C@@H](CCCN)C(=O)N1CCC[C@H]1C(=O)N[C@H](CC1CCCCC1)C(=O)N[C@@H](Cc1c[nH]c2ccccc12)C(=O)N[C@@H](Cc1ccccc1)C(N)=O [Compound 61, Ac-Phe-Orn-Pro-cha-Trp-Phe-NH2] (Ac-F[Orn]P[dCha]WF-NH2)
EC50 (human C5aR(CD88) [2]): > 100000 nM | agonistic activity (in words) (human C5aR(CD88) [2]): pure antagonists

CC(=O)N[C@H](C(=O)N[C@@H](CCCN)C(=O)N1CCC[C@H]1C(=O)N[C@H](CC1CCCCC1)C(=O)N[C@@H](Cc1c[nH]c2ccccc12)C(=O)N[C@@H](Cc1ccccc1)C(N)=O)C(c1ccccc1)c1ccccc1 [Compound 71, Ac-Ebw-Orn-Pro-cha-Trp-Phe-NH2] (Ac-[Dip][Orn]P[dCha]WF-NH2)
IC50 (human C5aR(CD88) [1]): 200 to 2000 nM | EC50 (human C5aR(CD88) [2]): > 100000 nM | agonistic activity (in words) (human C5aR(CD88) [2]): pure antagonists

CC(=O)N[C@@H](Cc1ccccc1)C(=O)N[C@@H](CCCN)C(=O)N1CCCC[C@H]1C(=O)N[C@H](CC1CCCCC1)C(=O)N[C@@H](Cc1c[nH]c2ccccc12)C(=O)N[C@@H](Cc1ccccc1)C(N)=O [Compound 55, Ac-Phe-Orn-Pip-cha-Trp-Phe-NH2] (Ac-F[Orn][Pip][dCha]WF-NH2)
IC50 (human C5aR(CD88) [1]): 20 to 50 nM | EC50 (human C5aR(CD88) [2]): > 100000 nM | agonistic activity (in words) (human C5aR(CD88) [2]): pure antagonists

CC(=O)N[C@@H](Cc1ccccc1)C(=O)N[C@@H](Cc1c[nH]c2ccccc12)C(=O)N1CCC[C@H]1C(=O)N[C@H](CC1CCCCC1)C(=O)N[C@@H](Cc1c[nH]c2ccccc12)C(=O)N[C@@H](Cc1ccccc1)C(N)=O [Compound 84, Ac-Phe-Trp-Pro-cha-Trp-Phe-NH2] (Ac-FWP[dCha]WF-NH2)
IC50 (human C5aR(CD88) [1]): 50 to 200 nM | EC50 (human C5aR(CD88) [2]): > 100000 nM | agonistic activity (in words) (human C5aR(CD88) [2]): pure antagonists

CC(=O)N[C@@H](Cc1cccs1)C(=O)N[C@@H](CCCN)C(=O)N1CCCC[C@H]1C(=O)N[C@H](CC1CCCCC1)C(=O)N[C@@H](Cc1csc2ccccc12)C(=O)N[C@@H](Cc1ccccc1)C(N)=O [Compound 67, Ac-Thi-Orn-Pip-cha-Bta-Phe-NH2] (Ac-[2Thi][Orn][Pip][dCha][Bta]F-NH2)
IC50 (human C5aR(CD88) [1]): 20 to 50 nM | EC50 (human C5aR(CD88) [2]): > 100000 nM | agonistic activity (in words) (human C5aR(CD88) [2]): pure antagonists

N[C@@H](Cc1ccccc1)C(=O)N[C@H]1CCCNC(=O)[C@H](Cc2ccccc2)NC(=O)[C@H](Cc2c[nH]c3ccccc23)NC(=O)[C@@H](CC2CCCCC2)NC(=O)[C@@H]2CCCN2C1=O [H-Phe-[Orn-Pro-cha-Trp-Phe]] (H-F[Orn]P[dCha]WF; lactam 2-C)
agonistic activity (in words) (human C5aR(CD88) [2]): pure antagonists

CCCC[C@@H]1NC(=O)[C@H](Cc2c[nH]c3ccccc23)NC(=O)[C@@H](CC2CCCCC2)NC(=O)[C@H](CO)NC(=O)[C@@H](NC(=O)[C@@H](N)Cc2ccccc2)CCCNC1=O [Compound 44, H-Phe-[Orn-Ser-cha-Trp-Nle]] (H-F[Orn]S[dCha]W[Nle]; lactam 2-C)
agonistic activity (in words) (human C5aR(CD88) [2]): pure antagonists

CC(=O)N[C@@H](Cc1ccccc1)C(=O)N[C@H]1CCCNC(=O)[C@H](CC2CCCCC2)NC(=O)[C@H](Cc2c[nH]c3ccccc23)NC(=O)[C@@H](CC2CCCCC2)NC(=O)[C@@H]2CCCN2C1=O [Compound 189, Ac-Phe-[Orn-Pro-cha-Trp-Cha]] (Ac-F[Orn]P[dCha]W[Cha]; lactam 2-C)
IC50 (human C5aR(CD88) [1]): 50 to 200 nM

CC(=O)N[C@@H](Cc1cccc(F)c1)C(=O)N[C@@H](CCCN)C(=O)N1CCC[C@H]1C(=O)N[C@H](CCC(C)C)C(=O)N[C@@H](Cc1cccc(Cl)c1)C(=O)N[C@@H](Cc1cccc(F)c1)C(N)=O [Compound 163, Ac-Mff-Orn-Pro-hle-Mcf-Mff-NH2] (Ac-[Phe(3-F)][Orn]P[d(hLeu)][Phe(3-Cl)][Phe(3-F)]-NH2)
IC50 (human C5aR(CD88) [1]): 50 to 200 nM

CC(=O)N[C@@H](Cc1ccccc1)C(=O)N[C@@H](CCCN)C(=O)N1CCC[C@H]1C(=O)N[C@H](CCC(C)C)C(=O)N[C@@H](Cc1cccc(Cl)c1)C(=O)N[C@@H](Cc1ccc2ccccc2c1)C(N)=O [Compound 288, Ac-Phe-Orn-Pro-hle-Mcf-2Ni—NH2] (Ac-F[Orn]P[d(hLeu)][Phe(3-Cl)][2Nal]-NH2)
IC50 (human C5aR(CD88) [1]): 50 to 200 nM

NCCC[C@H](NC(=O)[C@H](Cc1ccccc1)NC(=O)Nc1ccccc1)C(=O)N1CCC[C@H]1C(=O)N[C@H](CC1CCCCC1)C(=O)N[C@@H](Cc1c[nH]c2ccccc12)C(=O)N[C@@H](Cc1ccccc1)C(N)=O [Compound 85, Ph-NH—CO-Phe-Orn-Pro-cha-Trp-Phe-NH2] ({NHPh-CO}-F[Orn]P[dCha]WF-NH2)
IC50 (human C5aR(CD88) [1]): 50 to 200 nM

CC(=O)N[C@@H](Cc1ccccc1)C(=O)N[C@@H](CCCN)C(=O)N1CCC[C@H]1C(=O)N[C@H](CCC(C)C)C(=O)N[C@@H](Cc1ccccc1F)C(=O)N[C@@H](Cc1ccccc1)C(N)=O [Compound 295, Ac-Phe-Orn-Pro-hle-Off-Phe-NH2] (Ac-F[Orn]P[d(hLeu)][Phe(2-F)]F-NH2)
IC50 (human C5aR(CD88) [1]): 50 to 200 nM

CC(=O)N[C@@H](Cc1ccccc1)C(=O)N[C@@H](CCCN)C(=O)N[C@H](CC1CCCCC1)C(=O)N[C@H](CC1CCCCC1)C(=O)N[C@@H](Cc1csc2ccccc12)C(=O)N[C@@H](Cc1ccccc1)C(N)=O [Ac-Phe-Orn-cha-cha-Bta-Phe-NH2] (Ac-F[Orn][dCha][dCha][Bta]F-NH2)
agonistic activity (in words) (human C5aR(CD88) [2]): pure antagonists

CC(=O)N[C@@H](Cc1ccccc1)C(=O)N[C@@H](CCCN)C(=O)N1CCC[C@H]1C(=O)N[C@H](CCC(C)C)C(=O)N[C@@H](Cc1cccc(Cl)c1)C(=O)N[C@@H](CC1CCCCC1)C(N)=O [Compound 289, Ac-Phe-Orn-Pro-hle-Mcf-Cha-NH2] (Ac-F[Orn]P[d(hLeu)][Phe(3-Cl)][Cha]-NH2)
IC50 (human C5aR(CD88) [1]): 20 to 50 nM

CC(C)CC[C@H]1NC(=O)[C@H](CO)NC(=O)[C@@H](NC(=O)[C@@H](N)Cc2ccccc2)CCCNC(=O)[C@H](Cc2ccccc2)NC(=O)[C@H](Cc2ccc(F)cc2)NC1=O [Compound 389, H-Phe-[Orn-Ser-hle-Pff-Phe]] (H-F[Orn]S[d(hLeu)][Phe(4-F)]F; lactam 2-C)
IC50 (human C5aR(CD88) [1]): 50 to 200 nM

B1: hrC5a: hrC5a (Sigma), added for stimulation of enzyme release (protein, UniProt P01031 678-751, looked up)
C5a anaphylatoxin: TLQKKIEEIAAKYKHSVVKKCCYDGACVNNDETCEQRAARISLGPRCIKAFTECCVVASQLRANISHKDMQLGR
modifications: C5a anaphylatoxin
notes: hrC5a (Sigma), added for stimulation of enzyme release
EC50 (human C5aR(CD88) [2]): 2.4 nM
